Data from ChEMBL document CHEMBL1130674, “N-arylrolipram derivatives as potent and selective PDE4 inhibitors” (1998).

Assays:
[1] = biological target: T1, 3',5'-cyclic-AMP phosphodiesterase 4B (Rattus norvegicus) (UniProt P14646); experiment: Inhibition of phosphodiesterase (PDE) 4B
T1 sequence (whole entry): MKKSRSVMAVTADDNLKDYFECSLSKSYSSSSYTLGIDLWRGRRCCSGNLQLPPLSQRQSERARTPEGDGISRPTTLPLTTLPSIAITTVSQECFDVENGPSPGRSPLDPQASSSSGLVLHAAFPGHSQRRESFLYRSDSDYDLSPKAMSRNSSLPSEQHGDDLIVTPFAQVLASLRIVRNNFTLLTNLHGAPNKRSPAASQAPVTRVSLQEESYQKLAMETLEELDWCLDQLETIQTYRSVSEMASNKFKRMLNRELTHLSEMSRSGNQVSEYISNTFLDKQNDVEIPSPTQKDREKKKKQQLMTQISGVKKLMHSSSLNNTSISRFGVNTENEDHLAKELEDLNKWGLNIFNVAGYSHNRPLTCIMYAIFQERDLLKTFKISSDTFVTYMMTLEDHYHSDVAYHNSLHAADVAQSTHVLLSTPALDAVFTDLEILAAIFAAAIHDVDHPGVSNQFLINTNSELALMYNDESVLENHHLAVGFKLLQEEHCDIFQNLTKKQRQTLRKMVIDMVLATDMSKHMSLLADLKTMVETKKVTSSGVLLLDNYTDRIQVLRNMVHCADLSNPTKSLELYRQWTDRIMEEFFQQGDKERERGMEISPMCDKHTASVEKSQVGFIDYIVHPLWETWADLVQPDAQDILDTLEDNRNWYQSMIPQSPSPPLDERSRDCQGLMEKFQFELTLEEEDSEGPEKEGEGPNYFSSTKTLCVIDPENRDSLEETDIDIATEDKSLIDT

[2] = biological target: 3',5'-cyclic-AMP phosphodiesterase 4D (Homo sapiens) (UniProt Q08499); experiment: Inhibition of phosphodiesterase (PDE) 4D
[3] = biological target: 3',5'-cyclic-AMP phosphodiesterase 4A (Homo sapiens) (UniProt P27815)
Description: Inhibition of phosphodiesterase (PDE) 4A

[4] = biological target: Phosphodiesterase 3 (Homo sapiens) (UniProt Q14432+Q13370); experiment: Inhibition of phosphodiesterase (PDE) 3; type: protein assay
[5] = Inhibition of rolipram binding
PBMC [6] = experiment: Inhibition of LPS induced TNF-alpha release by human peripheral blood mononuclear cells.; type: functional
PBMC [7] = experiment: Inhibition of anti-CD3 induced IFN-gamma-release in human peripheral blood mononuclear cells.; type: functional
PBMC [8] = experiment: Inhibition of anti-CD3 induced T-cell proliferation in human peripheral blood mononuclear cells.; type: functional
Rattus norvegicus [9] = experiment: Eosinophil accumulation in sensitized brown norway rats at 3.2 mg/kg dose (No of rats = 5); type: functional
Homo sapiens = species: Homo sapiens; experiment: Inhibition of fMLP induced oxidative burst in human eosinophils.; type: functional
PBMC [10] = experiment: Inhibition of anti-CD3 induced IL-4 release by human peripheral blood mononuclear cells.; type: functional
Rattus norvegicus [11] = experiment: Eosinophil accumulation in sensitized brown norway rats at 1 mg/kg dose (No of rats = 5); type: functional

3',5'-cyclic-AMP phosphodiesterase 4A (Homo sapiens), sequence (P27815 whole entry): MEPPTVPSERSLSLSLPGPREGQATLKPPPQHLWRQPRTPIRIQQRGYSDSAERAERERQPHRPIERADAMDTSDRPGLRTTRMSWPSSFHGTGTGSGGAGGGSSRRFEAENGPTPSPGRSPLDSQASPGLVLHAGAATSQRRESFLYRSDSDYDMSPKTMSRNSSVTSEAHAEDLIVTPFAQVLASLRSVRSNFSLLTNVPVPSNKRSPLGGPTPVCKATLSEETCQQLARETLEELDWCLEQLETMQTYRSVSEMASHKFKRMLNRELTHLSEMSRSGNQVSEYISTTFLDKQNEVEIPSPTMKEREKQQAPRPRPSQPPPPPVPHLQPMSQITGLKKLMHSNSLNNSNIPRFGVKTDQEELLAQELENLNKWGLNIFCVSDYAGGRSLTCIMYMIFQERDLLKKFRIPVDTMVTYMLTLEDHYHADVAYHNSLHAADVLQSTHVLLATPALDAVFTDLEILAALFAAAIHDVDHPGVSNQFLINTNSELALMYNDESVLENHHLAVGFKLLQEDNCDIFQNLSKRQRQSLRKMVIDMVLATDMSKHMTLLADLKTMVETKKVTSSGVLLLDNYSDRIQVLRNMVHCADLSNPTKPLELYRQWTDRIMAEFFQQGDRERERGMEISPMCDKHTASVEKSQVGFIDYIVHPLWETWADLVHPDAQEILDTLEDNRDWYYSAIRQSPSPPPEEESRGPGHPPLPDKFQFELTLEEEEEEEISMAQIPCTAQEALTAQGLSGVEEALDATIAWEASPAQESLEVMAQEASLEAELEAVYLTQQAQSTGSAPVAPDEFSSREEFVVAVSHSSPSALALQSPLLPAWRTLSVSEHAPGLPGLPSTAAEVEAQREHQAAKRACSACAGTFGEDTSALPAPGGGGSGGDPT
3',5'-cyclic-AMP phosphodiesterase 4D (Homo sapiens), sequence (Q08499 whole entry): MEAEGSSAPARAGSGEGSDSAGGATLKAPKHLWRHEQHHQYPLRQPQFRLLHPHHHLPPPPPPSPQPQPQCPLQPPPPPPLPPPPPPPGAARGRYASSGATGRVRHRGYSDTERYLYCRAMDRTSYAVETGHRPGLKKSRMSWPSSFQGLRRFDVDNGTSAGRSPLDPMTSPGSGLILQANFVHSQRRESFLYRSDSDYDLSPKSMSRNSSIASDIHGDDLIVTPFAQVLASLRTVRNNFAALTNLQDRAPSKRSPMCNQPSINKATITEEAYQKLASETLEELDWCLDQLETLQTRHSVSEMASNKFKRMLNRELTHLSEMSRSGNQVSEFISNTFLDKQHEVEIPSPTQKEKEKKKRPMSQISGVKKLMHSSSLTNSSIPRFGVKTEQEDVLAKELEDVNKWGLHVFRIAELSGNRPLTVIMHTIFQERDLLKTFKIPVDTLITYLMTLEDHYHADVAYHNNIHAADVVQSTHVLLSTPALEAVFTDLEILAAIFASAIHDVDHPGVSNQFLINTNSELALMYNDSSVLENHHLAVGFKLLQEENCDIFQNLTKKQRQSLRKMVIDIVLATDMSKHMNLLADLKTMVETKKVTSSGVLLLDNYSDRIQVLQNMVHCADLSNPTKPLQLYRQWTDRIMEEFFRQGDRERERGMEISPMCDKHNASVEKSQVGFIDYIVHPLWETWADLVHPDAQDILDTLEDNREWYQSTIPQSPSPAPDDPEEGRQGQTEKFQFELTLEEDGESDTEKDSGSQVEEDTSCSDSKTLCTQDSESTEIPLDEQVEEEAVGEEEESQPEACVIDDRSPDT

Row | pIC50 [1] | pIC50 [2] | pIC50 [3] | pIC50 [4] | pIC50 [5] | pIC50 (Homo sapiens) | SMILES | pIC50 (PBMC [6]) | pIC50 (PBMC [7]) | pIC50 (PBMC [8]) | Activation (Rattus norvegicus [9]) | pIC50 (PBMC [10]) | Activation (Rattus norvegicus [11])
1 | 8.6 | 8.1 | 8.2 | < 4 | 8.1 | – | COc1cccc(COc2cccc(N3CC(c4ccc(OC)c(OC5CCCC5)c4)CC3=O)c2)c1 (stereo unspecified) | – | – | – | – | – | –
2 | 7.7 | 7.9 | 7.9 | < 4 | 7.5 | 6.6 | COc1cccc(COc2cc(C(=O)O)cc(N3CC(c4ccc(OC)c(OC5CCCC5)c4)CC3=O)c2)c1 (stereo unspecified) | 7.4 | 7.5 | 7.2 | 5 mU ml-1 | 6.6 | –
3 | – | – | – | – | – | 6.1 | COc1ccc(C2CNC(=O)C2)cc1OC1CCCC1 (stereo unspecified) [ROLIPRAM] | 7.1 | 5.6 | – | – | 6.3 | –
4 | 8.3 | 8.8 | 8.6 | < 4 | 8.3 | 7.3 | COc1cccc(COc2cc(C(=O)NN(C)C)cc(N3CC(c4ccc(OC)c(OC5CCCC5)c4)CC3=O)c2)c1 (stereo unspecified) | 7.7 | 7.8 | 7.3 | – | 7.6 | 10 mU ml-1
